Source: PMC12119673, “Apoptotic cell death induced by copper (II), manganese (II) and silver (I) complexes containing bridging dicarboxylate and 1,10-phenanthroline ligands: one of the multi-modes of anticancer activity?” (Biometals, 2025)
Like-named read-outs stand apart in the source and are kept apart here.

Legend:
MCF-7 cells = test: In vitro cytotoxicity assessment, alamar blue assay, 24-h exposure; format: cell-based, human
Protocol: The MCF-7 (human breast cancer) and MCF-12A (non-tumourigenic human breast) cell lines were obtained from the Technological University Dublin (TUDublin, City Campus) internal cell bank and commercially from the American Type Culture Collection (ATCC), respectively. Both cell lines were cultured using Dulbecco’s Modified Eagle Medium/Nutrient Mixture F-12 Ham (DMEM-F12) (Sigma, Ireland) (Cat# D6421) media. The MCF-7 media was supplemented with 10% Foetal Bovine Serum (Sigma, Ireland) (Cat# F7524) and 1% L-Glutamine (Sigma, Ireland) (Cat# 592020C). The MCF-12A media was supplemented with 5% Equine Serum (Sigma, Ireland) (Cat# H0146) 1.25% L-Glutamine (Sigma, Ireland) (Cat# 592020C), 20 ng/ml Human Epidermal Growth Factor (Thermo Fisher Scientific, Ireland) (Cat# PHG0313), 0.01 mg/ml insulin (Thermo Fisher Scientific, Ireland)(Cat# 12585014) and 500 ng/ml hydrocortisone (Sigma, Ireland) (Cat# H0888). The cells were grown in T75 culture flasks (Sarstedt, Germany) (Cat# 83.3911.002) and were incubated in a 5% CO2 atmosphere at 37 ℃. […] Following the incubation period, the media was removed, and cells were washed with sterile phosphate-buffered saline (PBS). […] Following the exposure period, the drug-containing media was removed, and cells were washed three times with PBS, ensuring complete removal of the test agents. A 5% working solution of Alamar Blue (Thermo Fisher Scientific, Ireland) (Cat# DAL1100) was prepared in dark conditions using unsupplemented cell culture media. 100 μl of the solution was added to each well, and the cells were incubated for 3 h. […] Each exposure was carried out in triplicate plates and was repeated three independent times. The software packages Microsoft^Ⓡ Excel (USA) and GraphPad Prism (Ver. 10.0.3) (GraphPad, USA) were used to analyse the alamar blue data. The treated sample values were first normalised to the negative control values. After normalisation, the mean and standard deviations (SD) were established using Microsoft^Ⓡ Excel. The statistical analysis package GraphPad was then used to determine the IC25 and IC50 concentrations.

MCF-12A cells = test: as above; format: cell-based, human; settings: for Decrease in activity towards MCF-12A cells relative to MCF-7 cells (selectivity): IC50 MCF-12A vs IC50 MCF-7, 24 h
Protocol: The MCF-7 (human breast cancer) and MCF-12A (non-tumourigenic human breast) cell lines were obtained from the Technological University Dublin (TUDublin, City Campus) internal cell bank and commercially from the American Type Culture Collection (ATCC), respectively. Both cell lines were cultured using Dulbecco’s Modified Eagle Medium/Nutrient Mixture F-12 Ham (DMEM-F12) (Sigma, Ireland) (Cat# D6421) media. The MCF-7 media was supplemented with 10% Foetal Bovine Serum (Sigma, Ireland) (Cat# F7524) and 1% L-Glutamine (Sigma, Ireland) (Cat# 592020C). The MCF-12A media was supplemented with 5% Equine Serum (Sigma, Ireland) (Cat# H0146) 1.25% L-Glutamine (Sigma, Ireland) (Cat# 592020C), 20 ng/ml Human Epidermal Growth Factor (Thermo Fisher Scientific, Ireland) (Cat# PHG0313), 0.01 mg/ml insulin (Thermo Fisher Scientific, Ireland)(Cat# 12585014) and 500 ng/ml hydrocortisone (Sigma, Ireland) (Cat# H0888). The cells were grown in T75 culture flasks (Sarstedt, Germany) (Cat# 83.3911.002) and were incubated in a 5% CO2 atmosphere at 37 ℃. The cells were monitored daily, and once 80–90% confluence was reached, they were subcultured with an enzymatic dissociation method using trypsin. Both cell lines were routinely subcultured for 1 week prior to beginning experimental work, to ensure the cells had adapted to the environment.
The MCF-7 and MCF-12A cells were seeded at a density of 1 × 10^4 in 96-well flat bottom plates (Sarstedt, Germany) (Cat# 83.3924) and incubated in a 5% CO2 atmosphere at 37 ℃ for 24 h prior to exposure to the complexes. Following the incubation period, the media was removed, and cells were washed with sterile phosphate-buffered saline (PBS). […] All agents were diluted in supplemented cell culture media, and the cells were exposed to a concentration range of 0.5 μM–100 μM for 24 h in the conditions outlined previously. Following the exposure period, the drug-containing media was removed, and cells were washed three times with PBS, ensuring complete removal of the test agents. A 5% working solution of Alamar Blue (Thermo Fisher Scientific, Ireland) (Cat# DAL1100) was prepared in dark conditions using unsupplemented cell culture media. 100 μl of the solution was added to each well, and the cells were incubated for 3 h. Following incubation, absorbance values were obtained using a Varioskan Lux (Thermo Scientific, USA) at 570 nm and 600 nm wavelengths. Each exposure was carried out in triplicate plates and was repeated three independent times.
The software packages Microsoft^Ⓡ Excel (USA) and GraphPad Prism (Ver. 10.0.3) (GraphPad, USA) were used to analyse the alamar blue data. The treated sample values were first normalised to the negative control values. After normalisation, the mean and standard deviations (SD) were established using Microsoft^Ⓡ Excel. The statistical analysis package GraphPad was then used to determine the IC25 and IC50 concentrations. […] A p value of 0.05 or lower is considered to be statistically significant.

[1] = MCF-7, 24-hour exposure, per one metal centre, mean ± S.D. (N=3)
[2] = MCF-7, 24-hour exposure, per one metal centre, mean ± S.D. (N=3), read-out: IC50 calculated per one metal centre
[3] = MCF-12A, 24-hour exposure, per one metal centre, mean ± S.D. (N=3)
[4] = MCF-12A, 24-hour exposure, per one metal centre, mean ± S.D. (N=3), read-out: IC50 calculated per one metal centre
[5] = MCF-7, 24-h exposure, 25% reduction in metabolic activity, mean ± SD (N = 3)
[6] = MCF-12A, 24-h exposure, 25% reduction in metabolic activity, mean ± SD (N = 3)

| Compound | Cytotoxic activity IC25 ± SD (MCF-7 cells) [µM] | IC50 (MCF-7 cells) [µM] | IC25 calculated per one metal centre (MCF-7 cells; [1]) | IC50 (MCF-7 cells; [2]) [µM] | Cytotoxic activity IC25 ± SD (MCF-12A cells) [µM] | IC50 (MCF-12A cells) [µM] | IC25 calculated per one metal centre (MCF-12A cells; [3]) [µM] | IC50 (MCF-12A cells; [4]) [µM] | Cytotoxic activity IC25 ± SD (MCF-7 cells; [5]) [µM] | Cytotoxic activity IC25 ± SD (MCF-12A cells; [6]) [µM] | IC50 (MCF-7 cells; Homo sapiens, MCF7, MCF-7, 24-h exposure, 50% reduction in metabolic activity, mean ± SD (N = 3), read-out: Cytotoxic activity IC50 ± SD) [µM] | IC50 (MCF-12A cells; Homo sapiens, MCF-12A, 24 h, read-out: IC50 calculated per one metal centre) [µM] | IC50 (MCF-7 cells; MCF-7, 24-h exposure, 50% reduction in metabolic activity, mean ± SD (N = 3), read-out: Cytotoxic activity IC50 ± SD) [µM] | Decrease in activity towards MCF-12A cells relative to MCF-7 cells (selectivity) (MCF-12A cells; listed as 7) | Decrease in activity towards MCF-12A cells relative to MCF-7 cells (selectivity) (MCF-12A cells; listed as complex 7) | IC50 (MCF-12A cells; MCF-12A, 24-h exposure, 50% reduction in metabolic activity, mean ± SD (N = 3), read-out: Cytotoxic activity IC50 ± SD) [µM] |
| --- | --- | --- | --- | --- | --- | --- | --- | --- | --- | --- | --- | --- | --- | --- | --- | --- |
| O=C([O-])CCCCCCC(=O)[O-].[Cu+2].[Cu+2].[O-][Cl+3]([O-])([O-])[O-].[O-][Cl+3]([O-])([O-])[O-].c1cnc2c(c1)ccc1cccnc12.c1cnc2c(c1)ccc1cccnc12.c1cnc2c(c1)ccc1cccnc12.c1cnc2c(c1)ccc1cccnc12 [Complex 1, [Cu2(oda)(phen)4](ClO4)2] | 1.77 ± 0.14 | 4.76 ± 0.3 | 3.54 ± 0.28  µM | 9.52 ± 0.6 | 4.86 ± 1.91 | 6.14 ± 0.37 | 9.72 ± 3.82 | 12.3 ± 0.74 | – | – | – | – | – | – | – | – |
| O=C([O-])CCCCCCC(=O)[O-].[Cu+2].c1cnc2c(c1)ccc1cccnc12.c1cnc2c(c1)ccc1cccnc12 [Complex 2, [Cu(oda)(phen)2]] | – | – | 2.04 ± 0.24  µM | 6.72 ± 0.6 | – | – | 0.68 ± 0.13 | 1.65 ± 0.13 | 2.04 ± 0.24 | 0.68 ± 0.13 | – | – | – | – | – | – |
| O=C([O-])CCCCCCC(=O)[O-].[Ag+].[Ag+].c1cnc2c(c1)ccc1cccnc12.c1cnc2c(c1)ccc1cccnc12.c1cnc2c(c1)ccc1cccnc12 [Complex 4, [Ag2(oda)(phen)3]] | – | – | 11.04 ± 1.78  µM | – | – | – | 9.82 ± 0.28 | – | 5.52 ± 0.89 | 4.91 ± 0.14 | – | – | – | – | – | – |
| O=C([O-])CCCCCCCCCC(=O)[O-].[Ag+].[Ag+].c1cnc2c(c1)ccc1cccnc12.c1cnc2c(c1)ccc1cccnc12.c1cnc2c(c1)ccc1cccnc12 [Complex 5, [Ag2(udda)(phen)3]] | – | – | 11.68 ± 0.24  µM | – | – | – | 11.04 ± 1.0 | – | 5.84 ± 0.12 | 5.52 ± 0.51 | – | – | – | – | – | – |
| c1cnc2c(c1)ccc1cccnc12 [Phen, 1,10-Phenanthroline] | – | – | 9.02 ± 4.26  µM | – | – | – | 11.14 ± 4.39 | – | 9.02 ± 4.26 | 11.14 ± 4.39 | 33.2 ± 9.36 | 20.9 ± 1.96 | – | – | – | – |
| {[Mn2(oda)3(phen)4]^2−[Mn2(oda)(phen)4 (H2O)2]^2+} [Complex 7] | – | – | 2.80 ± 0.44  µM | 11.2 ± 0.52 | – | – | 1.52 ± 1.56 | 104 ± 30.8 | 0.70 ± 0.11 | 0.38 ± 0.39 | – | – | 2.79 ± 0.13 | almost tenfold reduction in cytotoxicity | almost tenfold decrease in activity | 26.1 ± 7.7 |
